From US9790520B2, “Antimicrobial method for fermentation processes” (DeLaval Holding AB, priority 2010, dated 2017)

Columns and labels:
[1] = Residual PAA and HP in corn mash by Hach DPD total chlorine test; format: physicochemical
Description: At the point of injection, the mash temperature was 140° F. and the mash flow rate was 110 gpm. The pumps used to pump both the HP and PAA solution were Prominent diaphragm pumps fitted with Teflon liquid ends. The dose of the PAA solution was 15 ppm (as PAA) and the dose of the HP was 40 ppm (as peroxide). However, the PAA solution and HP were fed for only 15 hours of the 23 hour fermentor fill time making the overall dose 9.8 ppm of PAA solution and 26 ppm of HP.
Samples were taken every hour at the mash cooler exit and fermentation tank. The samples were tested using a Hach DPD total chlorine test. Three (3) ml of sample was added to a test tube, then one DPD powder pillow was added to the sample. […] Peracetic acid (PAA) concentration was estimated based on the hue of pink color after 30 seconds.

yeast = assay: Full scale ethanol plant trial: alcohol production, yeast counts/viability, glycerol; format: cell-based, Saccaromyces cerevisiae
Description: A number of full scale trials were conducted in order to evaluate the efficacy of introducing peracetic acid and hydrogen peroxide into a fermentation system was evaluated and compared to the use of conventional antibiotics. The ethanol plant tested is a 20 MGPY plant having a modified Delta T design. The plant process flow is as follows: • Corn mash cooler stage one→Corn mash cooler stage 2→fermenter←→fermenter cooler→distillation The corn mash enters the stage one cooler at 180° F. and is cooled to 140° F. It then enters the stage 2 cooler and is cooled to 90° F. Flow through the cooler is 110 gpm. From the stage 2 cooler the mash is sent to the fermenter. Once in the fermenter, the corn mash is re-circulated through a plate and frame mash cooler. When the fermenter has been filled for 30 minutes, yeast is added to the recirculating corn mash. The fermenter takes about 23 hours to fill. Once filled, fermentation begins to accelerate releasing heat which is dissipated in the fermenter cooler. The fermenter mash is sent to distillation about 56 hours after the fermenter is filled. System parameters are as follows:
During fermentation, carbohydrates, ethanol, and organic acids are monitored in order to insure that the fermentation process is occurring normally and to insure that undesirable bacteria are kept under control. […]

OO [HP, hydrogen peroxide]
HP in fermenter corn mash ([1]; after 3 hours): not detectable

CC(=O)OO [PAA, peracetic acid]
PAA in fermenter corn mash ([1]; after two hours): not detectable | PAA in fermenter corn mash ([1]; up to two hours into filling): positive

Virginiamycin [antibiotics]
glycerol levels (indicative of stress on the yeast) (yeast): tended to increase
